ChEMBL document CHEMBL1136951, “5-hydroxyindole-2-carboxylic acid amides: novel histamine-3 receptor inverse agonists for the treatment of obesity” (J Med Chem, 2009)

Assays:
[1] = rat, microsomes, 2 µM
in vivo [2] = details: Wistar, rat
Rattus norvegicus [3] = species on record: Rattus norvegicus; assay: animal or person; details: Wistar, ip, read-out: INH
physchem [4] = details: octanol/water, pH 7.4
[5] = human, microsomes, 2 µM
physchem [6] = assay: physchem
in vivo [7] = details: Sprague-Dawley, rat, brain, ip, 10 mg/kg
in vivo [8] = details: Wistar, rat; remark: listed apart in the source
in vivo [9] = details: Sprague-Dawley, rat, brain, po, 10 mg/kg
Rattus norvegicus [10] = species on record: Rattus norvegicus; assay: animal or person; details: Wistar, ip, read-out: INH; remark: listed apart in the source
hERG (KCNH2) = hERG (KCNH2) (Homo sapiens, UniProt Q12809); assay: in vitro; details: CHO cells expressing human ERG
Sequence of hERG (KCNH2) (Q12809 whole entry): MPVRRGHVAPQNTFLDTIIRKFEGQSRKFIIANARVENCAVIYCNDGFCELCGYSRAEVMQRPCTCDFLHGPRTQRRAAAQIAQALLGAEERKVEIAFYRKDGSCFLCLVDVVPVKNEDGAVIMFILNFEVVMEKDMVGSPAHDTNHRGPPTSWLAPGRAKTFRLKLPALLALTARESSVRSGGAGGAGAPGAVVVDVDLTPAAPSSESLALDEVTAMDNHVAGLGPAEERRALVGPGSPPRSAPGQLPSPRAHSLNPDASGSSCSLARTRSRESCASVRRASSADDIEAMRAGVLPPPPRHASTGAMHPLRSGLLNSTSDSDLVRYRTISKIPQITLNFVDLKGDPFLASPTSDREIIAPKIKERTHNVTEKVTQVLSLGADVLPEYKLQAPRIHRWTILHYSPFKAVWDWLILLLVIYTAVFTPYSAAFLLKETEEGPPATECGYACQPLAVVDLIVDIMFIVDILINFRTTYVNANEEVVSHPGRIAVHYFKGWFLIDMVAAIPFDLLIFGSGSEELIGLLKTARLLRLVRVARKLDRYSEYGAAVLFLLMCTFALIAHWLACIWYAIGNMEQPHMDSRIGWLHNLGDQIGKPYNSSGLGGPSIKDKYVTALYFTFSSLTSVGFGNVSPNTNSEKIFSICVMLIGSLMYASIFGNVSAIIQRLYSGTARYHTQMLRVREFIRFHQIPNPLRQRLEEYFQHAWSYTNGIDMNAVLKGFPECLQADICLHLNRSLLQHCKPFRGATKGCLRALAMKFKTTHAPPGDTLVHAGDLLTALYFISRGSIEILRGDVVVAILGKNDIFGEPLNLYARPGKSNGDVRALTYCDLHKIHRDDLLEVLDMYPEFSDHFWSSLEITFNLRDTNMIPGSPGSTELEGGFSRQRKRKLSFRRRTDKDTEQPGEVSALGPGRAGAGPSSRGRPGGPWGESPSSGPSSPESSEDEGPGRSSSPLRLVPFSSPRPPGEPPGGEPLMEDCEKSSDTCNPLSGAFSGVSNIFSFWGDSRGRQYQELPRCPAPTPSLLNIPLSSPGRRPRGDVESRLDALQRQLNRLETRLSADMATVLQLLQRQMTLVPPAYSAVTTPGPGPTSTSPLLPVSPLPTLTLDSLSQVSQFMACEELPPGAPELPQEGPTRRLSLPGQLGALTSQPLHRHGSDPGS

physchem [11] = assay: physchem; remark: listed apart in the source
Rattus norvegicus [12] = species on record: Rattus norvegicus; assay: animal or person; details: Wistar, ip, read-out: INH; remark: listed apart in the source
Rattus norvegicus [13] = species on record: Rattus norvegicus; assay: animal or person; details: Wistar, ip, read-out: INH; remark: listed apart in the source
in vivo [14] = details: Wistar, rat; remark: listed apart in the source
Rattus norvegicus [15] = species on record: Rattus norvegicus; assay: animal or person; details: Wistar, po, read-out: INH
in vivo [16] = details: Sprague-Dawley, rat, brain/plasma, ip, 30 mg/kg
Rattus norvegicus [17] = species on record: Rattus norvegicus; assay: animal or person; details: Wistar, po, read-out: INH; remark: listed apart in the source
[18] = target: Histamine H2 receptor (Homo sapiens) (UniProt P25021); details: CHO, 3 uM
Sequence of Histamine H2 receptor (Homo sapiens) (P25021 whole entry): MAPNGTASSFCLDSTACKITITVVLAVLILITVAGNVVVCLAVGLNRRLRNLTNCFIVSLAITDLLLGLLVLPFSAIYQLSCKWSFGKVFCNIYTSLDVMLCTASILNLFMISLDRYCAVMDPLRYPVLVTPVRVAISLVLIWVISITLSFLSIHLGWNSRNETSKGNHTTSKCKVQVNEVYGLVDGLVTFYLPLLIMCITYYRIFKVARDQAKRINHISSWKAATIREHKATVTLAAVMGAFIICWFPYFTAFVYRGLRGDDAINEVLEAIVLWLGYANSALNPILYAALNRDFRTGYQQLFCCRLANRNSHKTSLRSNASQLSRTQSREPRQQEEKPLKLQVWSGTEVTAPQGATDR

in vivo [19] = details: Sprague-Dawley, rat, brain, ip, 30 mg/kg
[20] = target: Histamine H3 receptor (Homo sapiens) (UniProt Q9Y5N1); details: CHO, 3 uM
Sequence of Histamine H3 receptor (Homo sapiens) (Q9Y5N1 whole entry): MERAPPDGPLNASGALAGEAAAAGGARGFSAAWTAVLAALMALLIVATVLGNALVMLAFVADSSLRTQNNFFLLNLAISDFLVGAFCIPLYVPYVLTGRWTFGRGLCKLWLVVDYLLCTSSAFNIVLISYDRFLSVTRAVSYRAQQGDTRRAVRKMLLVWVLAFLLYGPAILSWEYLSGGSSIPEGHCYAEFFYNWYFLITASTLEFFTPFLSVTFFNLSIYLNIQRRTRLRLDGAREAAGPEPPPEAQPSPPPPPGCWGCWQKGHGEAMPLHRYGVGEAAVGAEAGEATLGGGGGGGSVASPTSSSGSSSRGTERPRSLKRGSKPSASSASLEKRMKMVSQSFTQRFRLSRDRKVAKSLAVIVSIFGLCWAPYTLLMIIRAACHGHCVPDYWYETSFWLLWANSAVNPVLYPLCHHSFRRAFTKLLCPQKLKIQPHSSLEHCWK

[21] = target: Histamine H1 receptor (Homo sapiens) (UniProt P35367); details: CHO, 3 uM
Sequence of Histamine H1 receptor (Homo sapiens) (P35367 whole entry): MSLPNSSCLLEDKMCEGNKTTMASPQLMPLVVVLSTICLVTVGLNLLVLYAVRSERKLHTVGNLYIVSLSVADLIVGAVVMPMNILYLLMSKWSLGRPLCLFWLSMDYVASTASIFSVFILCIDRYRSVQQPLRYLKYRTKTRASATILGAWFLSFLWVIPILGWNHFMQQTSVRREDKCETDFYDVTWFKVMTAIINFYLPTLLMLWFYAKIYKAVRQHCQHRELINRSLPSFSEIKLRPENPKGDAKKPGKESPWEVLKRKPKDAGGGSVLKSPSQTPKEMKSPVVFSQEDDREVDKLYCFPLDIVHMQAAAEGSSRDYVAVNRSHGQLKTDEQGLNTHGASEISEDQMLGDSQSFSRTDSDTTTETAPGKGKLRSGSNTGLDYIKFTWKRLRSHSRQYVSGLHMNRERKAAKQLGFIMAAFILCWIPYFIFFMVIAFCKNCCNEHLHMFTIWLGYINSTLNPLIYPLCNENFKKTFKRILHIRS

[22] = target: Histamine H4 receptor (Homo sapiens) (UniProt Q9H3N8); details: CHO, 3 uM

| clearance [1] [µL/min/mg] | logD (physchem [4]) | clearance [5] [µL/min/mg] | pKa (physchem [6]) | Compound | further results |
| --- | --- | --- | --- | --- | --- |
| 8 | 0.31 | < 1 | 9.7 | CC(C)N1CCC(Oc2ccc3cc(C(=O)N4CCOCC4)[nH]c3c2)CC1 | inhibition in vivo at 10 mg/kg (Rattus norvegicus [12]): 60% |
| 20 | 0.59 | 5 | 9.9 | COC1CCN(C(=O)c2cc3cc(OC4CCN(C(C)C)CC4)ccc3[nH]2)CC1 | inhibition in vivo at 30 mg/kg (Rattus norvegicus [13]): 70% |
| 16 | 1.13 | < 1 | 9.8 | CC(C)N1CCC(Oc2ccc3c(c2)cc(C(=O)N2CCC(F)(F)CC2)n3CC#N)CC1 | – |
| 4 | 0.35 | 1 | 9.6 | CC(C)N1CCC(Oc2ccc3c(c2)cc(C(=O)N2CCS(=O)(=O)CC2)n3CC(F)(F)F)CC1 | – |
| 9 | -0.7 | 5 | 9.9 | CC(C)N1CCC(Nc2ccc3[nH]c(C(=O)N4CCOCC4)cc3c2)CC1 | inhibition in vivo at 30 mg/kg (Rattus norvegicus [13]): 99% |
| 10 | 1.31 | < 1 | 9.6 | CC(C)N1CCC(Oc2ccc3c(c2)cc(C(=O)N2CCC(F)(F)CC2)n3S(C)(=O)=O)CC1 | Vd (in vivo [14]): 9.2 L/kg; half-life (in vivo [2]): 6 h; inhibition in vivo at 3 mg/kg (Rattus norvegicus [15]): 81%; inhibition at 10 µM (hERG (KCNH2)): 64% |
| 13 | 0.03 | 10 | 10 | CC(C)(C)N1CCC(Oc2ccc3[nH]c(C(=O)N4CCOCC4)cc3c2)CC1 | – |
| 15 | 0.04 | < 1 | – | CCOC(=O)c1cc2cc(C(=O)O)ccc2[nH]1 | – |
| 5 | -0.15 | 12 | 9.8 | CC(C)N1CCC(Oc2ccc3[nH]c(C(=O)N4CCC(O)C4)cc3c2)CC1 (stereo not drawn) | inhibition in vivo at 30 mg/kg (Rattus norvegicus [13]): 83% |
| 12 | 0.09 | < 1 | 10 | CC(C)N1CCC(Oc2ccc3[nH]c(C(=O)N4CCOCC4)cc3c2)CC1 | half-life (in vivo [2]): 1 h; Kp (in vivo [16]): 0.3; inhibition at 10 µM (hERG (KCNH2)): 28%; inhibition in vivo at 30 mg/kg (Rattus norvegicus [13]): 91%; concentration at 2 h (in vivo [19]): 2230 ng/g |
| 20 | 3.04 | < 1 | – | CC(C)N1CCC(Oc2ccc3c(c2)cc(C(=O)N2CCC(F)(F)CC2)n3S(=O)(=O)c2ccc(F)cc2)CC1 | inhibition [18]: > 30% |
| 18 | – | 6 | 9.5 | CC(C)N1CCC(Oc2cc3[nH]c(C(=O)N4CCOCC4)cc3cc2F)CC1 | – |
| 6 | 0.32 | < 1 | 10 | O=C(c1cc2cc(OCCCN3CCCCC3)ccc2[nH]1)N1CCOCC1 | inhibition [18]: 3%; inhibition in vivo at 10 mg/kg (Rattus norvegicus [12]): 66%; inhibition [21]: 6%; inhibition [22]: 4% |
| 55 | 1.75 | 10 | 9.7 | CC(C)N1CCC(Oc2ccc3[nH]c(C(=O)N4CCCCCC4)cc3c2)CC1 | inhibition in vivo at 10 mg/kg (Rattus norvegicus [12]): 76% |

Continued, compound first:

| Compound | clearance [1] [µL/min/mg] | logD (physchem [4]) | clearance [5] [µL/min/mg] | pKa (physchem [6]) | further results |
| --- | --- | --- | --- | --- | --- |
| CC(C)N1CCC(Oc2ccc3c(c2)cc(C(=O)N2CCC(F)(F)CC2)n3CC(F)(F)F)CC1 | 8 | 2.08 | 2 | 9.7 | half-life (in vivo [2]): 1.8 h; inhibition in vivo at 3 mg/kg (Rattus norvegicus [3]): 49%; concentration at 2 h (in vivo [7]): 435 ng/g |
| CC(C)N1CCC(Oc2ccc3[nH]c(C(=O)N4CCC(F)(F)CC4)cc3c2)CC1 | 9 | 1.2 | 5 | 9.7 | half-life (in vivo [2]): 4 h; bioavailability (in vivo [8]): 100%; concentration at 2 h (in vivo [9]): 1690 ng/g; inhibition in vivo at 1 mg/kg (Rattus norvegicus [10]): 58%; inhibition at 10 µM (hERG (KCNH2)): 73%; solubility (physchem [11]): > 540 µg/mL |
| Cc1[nH]c2ccc(OC3CCN(C(C)C)CC3)cc2c1C(=O)N1CCOCC1 | 15 | -0.12 | < 1 | 9.8 | – |
| O=C(c1cc2cc(OC3CCN(C4CCC4)CC3)ccc2n1CC(F)(F)F)N1CCOCC1 | 28 | 2.09 | 4 | 9.1 | – |
| CC(C)N1CCC(Oc2ccc3c(c2)cc(C(=O)N2CCC(F)(F)CC2)n3C(C)C)CC1 | 12 | 1.67 | 4 | 9.9 | Vd (in vivo [14]): 9.2 L/kg; half-life (in vivo [2]): 11 h; concentration at 2 h (in vivo [9]): 1270 ng/g; inhibition in vivo at 3 mg/kg (Rattus norvegicus [3]): 80%; inhibition at 10 µM (hERG (KCNH2)): 42% |
| O=C(c1cc2cc(OC3CCN(C4CC4)CC3)ccc2n1CC(F)(F)F)N1CCOCC1 | 143 | 2.79 | 11 | 7.5 | – |
| O=C(c1cc2cc(OC3CCN(C4COC4)CC3)ccc2n1CC(F)(F)F)N1CCOCC1 | 228 | 1.83 | 8 | 6.4 | – |
| O=C(c1cc2cc(OC3CCN(C4CC4)CC3)ccc2[nH]1)N1CCOCC1 | 347 | 1.95 | 5 | 7.7 | – |
| O=C(c1ccc2c(c1)cc(C(=O)N1CCOCC1)n2CC(F)(F)F)N1CCN(C2CCC2)CC1 | 16 | 1.97 | 10 | 6.8 | Vd (in vivo [14]): 1.5 L/kg; Kp (in vivo [16]): 0.3; inhibition in vivo at 10 mg/kg (Rattus norvegicus [17]): 93%; inhibition at 10 µM (hERG (KCNH2)): 33% |
| CC(C)N1CCC(Oc2ccc3c(c2)cc(C(=O)N2CCC(F)(F)CC2)n3-c2ccc(Cl)c(Cl)c2)CC1 | 104 | 3.38 | < 1 | – | inhibition [18]: > 30% |
| CC(C)N1CCC(Oc2ccc3[nH]c(C(=O)N4CCCC(F)(F)C4)cc3c2)CC1 | 17 | 1.23 | < 1 | 10 | inhibition in vivo at 10 mg/kg (Rattus norvegicus [12]): 86% |
| CC(C)N1CCC(Oc2ccc3c(c2)cc(C(=O)N2CCOCC2)n3CC(F)(F)F)CC1 | 13 | 1.1 | < 1 | 9.7 | inhibition in vivo at 10 mg/kg (Rattus norvegicus [17]): 87%; inhibition in vivo at 10 mg/kg (Rattus norvegicus [12]): 87% |
| CCN(c1ccc2[nH]c(C(=O)N3CCOCC3)cc2c1)C1CCN(C(C)C)CC1 | – | – | – | – | inhibition [20]: 19% |
| CC(=O)n1c(C(=O)N2CCC(F)(F)CC2)cc2cc(OC3CCN(C(C)C)CC3)ccc21 | – | – | < 1 | – | – |
